According to PMC10488223 (International Journal of Molecular Sciences, 2023):

Assays:
[1] = target: T1, Acetylcholinesterase from Electrophorus electricus (AChE) (Electrophorus electricus, UniProt O42275); experiment: biochemical; details: for mechanism of inhibition on AChE: from Km and Vmax at different inhibitor concentrations; for IC50: mean ± SD, three determinations, pH 7.4, 500 μM acetylthiocholine
T1 construct: purchased Sigma-Aldrich (Milano, Italy)
Experimental: (§1) AChE or BuChE activity was assayed by the Ellman method as previously reported, using acetylthiocholine or butirrylthiocholine as a substrate, respectively. […] The reaction was started by the addition of 100 mU/mL AChE or BuChE, and the initial rate of the reaction was derived from the linear portion of the kinetics. […] Linear curve fits were obtained with the least-squares method, and the significance of the correlation was estimated from the squared correlation coefficient r^2.
(§2) The determination of the kinetic parameters Km and Vmax for both cholinesterase and monoamine oxidase activities were determined by measuring the initial velocity (v0) of substrate consumption/product formed at different substrate concentrations, as reported above. […] The Ki values obtained at different inhibitor concentrations were averaged to obtain a unique value of apparent Ki for each compound. Kinetic parameters and their corresponding standard errors were evaluated using a simple weighting method (Student’s t test).

[2] = target: T2, butirrylcholinesterase from equine serum (BuChE) (Equus caballus, UniProt P81908); experiment: biochemical; details: for inhibition type determined for BuChE: from Km and Vmax at different inhibitor concentrations; for IC50: mean ± SD, three determinations, pH 7.4, 500 μM butirrylthiocholine
T2 construct: butirrylcholinesterase from equine serum (BuChE); purchased Sigma-Aldrich (Milano, Italy); host or cells: equine serum
Experimental: as §1, §2

[3] = target: T3, Aβ 1–40 peptide (Homo sapiens, UniProt P05067); experiment: Aβ 1–40 self-aggregation inhibition assay (thioflavine T); format: biochemical; details: for interference with fibril formation: up to 500 µM; for IC50: 96 µM peptide, 37 °C, 24 h, mean ± SD, three determinations, read-out: IC50 on Aβ 1–40 fibril formation
T3 construct: Human β-amyloid peptide (1–40, cat. ab120479); purchased Abcam (Cambridge, UK) ab120479
Experimental: The percent inhibition due to the presence of the self-aggregation inhibition was calculated from the decrease in the fluorescence signal after the subtraction of the background fluorescence of a thioflavin T solution obtained in the same way.

[4] = target: mouse BACE-1 (Mus musculus, UniProt P56818); experiment: BACE-1 activity, fluorescent peptide substrate; format: biochemical; details: mean ± SD, four determinations; pH 4.5
Experimental: BACE-1 activity was assayed as previously reported. Briefly, the reaction mixtures contained 2.1 ng/µL mouse BACE-1 in 50 mM ammonium acetate buffer, pH 4.5 supplemented with 1 mM triton X-100, and the appropriate amount of the hybrid derivatives. The mixture was incubated for 10 min at room temperature and started by adding 100 nM final concentration of the fluorescent peptide substrate. The increase in fluorescence was followed kinetically using excitation and emission wavelengths of 320 and 420 nm, respectively. The rate was derived from the linear portion of the kinetics, usually in the first 30 min of the reaction. The known BACE-1 inhibitors I and IV were used as positive controls.

[5] = system: SH-SY5Y cells; experiment: Malondialdehyde (MDA), TBA reaction; format: cell-based, Human; details: Aβ peptide
Experimental: Lipid peroxidation was evaluated by measuring the reaction products of MDA with thiobarbituric acid (TBA), which forms a colorimetric product proportional to the MDA present. The cells were placed in 10 cm diameter cell culture and the following day were treated as indicated. At the end of the treatment, the cells were scraped, and then the suspension was subjected to freezing/thawing cycles. Subsequently, 36 mM TBA dissolved in glacial acetic acid was added and the mixture heated for 60 min to 100 °C. The reaction was interrupted by placing the vials on ice for 10 min, and a spectrophotometric reading was carried out at 532 nm.

[6] = system: SH-SY5Y cells; experiment: Intracellular ROS (H2DCF-DA, cytofluorimetric analysis); format: cell-based, Human; details: Aβ peptide
Experimental: (§3) Human neuroblastoma SH-SY5Y cell line is the most widely used model to reproduce in vitro AD [37]. This cell line was acquired from the American Type Culture Collection (20099 Sesto San Giovanni, Milan, Italy) and maintained in culture in Dulbecco Modified’s Eagle’s Medium (DMEM) (supplemented with 100 U/mL penicillin, 100 µg/mL streptomycin, and 10% thermally inactivated bovine fetal serum). The cells were appropriately differentiated: a treatment with trans retinoid acid 10 µM for 5 days was chosen (Sigma Aldrich, 20151 Milan, Italy). The medium was changed every 2–3 days, and when the cell line reached about 50% confluence, it was supplemented with the mixtures (MIX 0, 1, 2, 3, 4, 5, 6, 7) for a further 24 h. At the end of the treatment, all appropriate tests were performed.
The probe used to measure intracellular reactive oxygen species (ROS) is the molecule H2DCF-DA [39]. In fact, after its simple diffusion in cells, H2DCF-DA is cleaved by cellular esterases, which are responsible for the loss of an acetate group, transforming it into H2DCF. This compound can no longer leave the cell and binds the ROS to the highly fluorescent compound DCF. In this way, the quantification of DCF provides the content of cellular ROS. […] The fluorescence was evaluated by cytometric analysis (FACS Accury, Becton Dickinson, Milan, Italy). […]

[7] = system: cleaved caspase 3 in SH-SY5Y cells; experiment: Cleaved caspase-3 expression, Western blotting; format: cell-based, Human; details: mixtures 24 h; Aβ peptide vs untreated cells
Experimental: The total lysates of SH-SY5Y cells were obtained from 6-multiwells. Lysates were taken after the cells were exposed to a preheated lysis buffer (80 °C) containing 50 mM of Tris-HCl (pH 6.8), 2% of SDS, and a protease inhibitor mixture and immediately boiled for 2 min. The protein concentration was determined using a DCA protein assay. After the addition of 0.05% bromophenol blue, 10% glycerol, and 2% β-mercaptoethanol, the samples were boiled again and loaded onto 12% SDS-polyacrylamide gels. Following electrophoresis, the polypeptides were transferred to nitrocellulose filters and blocked with TTBS/milk (TBS 1%, Tween 20, and nonfat dry milk 5%), and then the antibodies were used to reveal the respective antigens. Primary antibodies were incubated overnight at 4 °C, and, after washing, the filters were exposed to horseradish peroxidase-conjugated secondary antibody for 1 h at room temperature. The blots were developed using the chemiluminescence procedure. Experiments of immunoblot analysis were carried out in two ways: (a) electrophoresis of proteins obtained from cell extracts, as described; and (b) electrophoresis of proteins obtained by the formation of mixtures in the test tubes (in the absence of cells). […]

[8] = system: SH-SY5Y cells; experiment: Cell viability by MTT assay; format: cell-based, Human
Experimental: as §3, with “The medium was changed every 2–3 days, and when the cell line reached about 50% confluence, it was supplemented with the mixtures (MIX 0, 1, 2, 3, 4, 5, 6, 7) for a further 24 h.” left out
The use of 3-(4,5-dimethyl[…])-2,5-diphenyltetrazole (MTT) bromide allowed the determination of cell viability for the presence of active enzymes within mitochondria in living cells. Mitochondrial […] can reduce MTT by producing colorimetric modification whose spectrophotometric measurement provides valuable information on cell viability. An amount of 8 × 10^3 cells/well was plated onto 96-well plates. After 24 h, the culture medium was replaced with fresh phenol-free medium containing a solution of MTT (0.5 mg/mL), and after 4 h of incubation, 100 μL 10% SDS was added to each well to solubilize the formazan crystals. The optical density was measured at wavelengths of 540 and 690 nm using a spectrophotometric reader (X MARK Spectrophotometer Microplate Bio-Rad).
Aβ 25 μM peptide was incubated alone or in the presence the specific amount of each hybrid compound [28] for 24 h at room temperature prior to the cell treatment. […]

T2 sequence (P81908 whole entry): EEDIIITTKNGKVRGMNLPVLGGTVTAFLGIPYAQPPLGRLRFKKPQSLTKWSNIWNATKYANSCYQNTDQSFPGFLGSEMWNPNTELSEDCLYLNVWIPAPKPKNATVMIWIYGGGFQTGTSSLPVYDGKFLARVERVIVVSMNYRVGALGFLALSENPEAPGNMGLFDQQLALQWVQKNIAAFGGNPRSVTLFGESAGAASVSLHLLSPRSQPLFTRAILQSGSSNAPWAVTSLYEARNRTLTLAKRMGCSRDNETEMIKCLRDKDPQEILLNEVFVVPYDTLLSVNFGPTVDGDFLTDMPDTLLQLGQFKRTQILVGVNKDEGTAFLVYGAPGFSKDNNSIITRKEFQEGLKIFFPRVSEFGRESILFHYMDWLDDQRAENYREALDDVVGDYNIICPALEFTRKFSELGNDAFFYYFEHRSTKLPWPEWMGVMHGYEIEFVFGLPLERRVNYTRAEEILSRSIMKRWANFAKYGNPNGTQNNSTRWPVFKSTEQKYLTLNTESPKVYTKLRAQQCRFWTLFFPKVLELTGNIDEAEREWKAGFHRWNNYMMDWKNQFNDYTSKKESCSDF
Sequence of mouse BACE-1 (P56818 46-501): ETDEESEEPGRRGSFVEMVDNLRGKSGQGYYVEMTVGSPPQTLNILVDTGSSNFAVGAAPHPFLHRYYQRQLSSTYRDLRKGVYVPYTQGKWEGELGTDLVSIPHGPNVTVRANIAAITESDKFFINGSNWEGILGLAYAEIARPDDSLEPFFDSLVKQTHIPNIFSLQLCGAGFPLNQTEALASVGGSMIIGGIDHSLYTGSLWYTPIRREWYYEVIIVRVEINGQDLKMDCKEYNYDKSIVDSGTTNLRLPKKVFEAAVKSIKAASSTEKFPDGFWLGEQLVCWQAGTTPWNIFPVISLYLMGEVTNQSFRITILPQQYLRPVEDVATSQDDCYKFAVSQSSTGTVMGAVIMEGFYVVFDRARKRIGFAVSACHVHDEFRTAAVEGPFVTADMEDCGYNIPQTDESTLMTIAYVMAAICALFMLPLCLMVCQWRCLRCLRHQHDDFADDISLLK
T1 sequence (O42275 24-633): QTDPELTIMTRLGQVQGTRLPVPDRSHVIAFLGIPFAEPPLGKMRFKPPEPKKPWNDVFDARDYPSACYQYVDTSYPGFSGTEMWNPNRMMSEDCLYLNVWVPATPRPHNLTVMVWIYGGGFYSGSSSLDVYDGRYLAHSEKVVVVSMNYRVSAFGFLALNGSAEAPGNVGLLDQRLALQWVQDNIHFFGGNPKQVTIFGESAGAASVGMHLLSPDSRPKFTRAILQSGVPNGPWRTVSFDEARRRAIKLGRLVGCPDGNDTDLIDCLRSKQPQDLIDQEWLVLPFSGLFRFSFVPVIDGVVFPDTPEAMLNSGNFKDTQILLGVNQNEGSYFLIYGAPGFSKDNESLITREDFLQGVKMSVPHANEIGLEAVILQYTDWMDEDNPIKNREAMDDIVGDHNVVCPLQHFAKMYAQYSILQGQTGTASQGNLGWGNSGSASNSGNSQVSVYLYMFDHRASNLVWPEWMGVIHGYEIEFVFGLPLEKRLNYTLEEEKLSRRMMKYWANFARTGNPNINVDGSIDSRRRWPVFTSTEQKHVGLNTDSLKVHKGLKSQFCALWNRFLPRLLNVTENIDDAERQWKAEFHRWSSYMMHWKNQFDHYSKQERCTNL
T3 sequence (P05067 672-711): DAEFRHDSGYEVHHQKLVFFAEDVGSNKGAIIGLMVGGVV

CC(=O)Oc1ccc(CCOC(=O)C2CCN(Cc3ccccc3)CC2)cc1 [HT4a]
mechanism of inhibition on AChE [1]: uncompetitive | IC50 [1]: 2.9 ± 0.2 µM | inhibition type determined for BuChE [2]: mixed | IC50 [2]: 4.1 ± 0.5 µM | interference with fibril formation [3]: did not interfere with fibril formation | IC50 [4]: 115 ± 5.1 µM

COc1cc(CCOC(=O)C2CCN(Cc3ccccc3)CC2)ccc1OC(C)=O [HT3a]
mechanism of inhibition on AChE [1]: uncompetitive | IC50 [1]: 2.6 ± 0.2 µM | inhibition type determined for BuChE [2]: noncompetitive | IC50 [2]: 4.3 ± 0.9 µM | interference with fibril formation [3]: did not interfere with fibril formation | IC50 [4]: 19.7 ± 0.7 µM

CC(=O)Oc1ccc(CCOC(=O)C2CCN(Cc3ccccc3)CC2)cc1OC(C)=O [HT1a]
mechanism of inhibition on AChE [1]: mixed | IC50 [1]: 4.3 ± 0.7 µM | inhibition type determined for BuChE [2]: mixed | IC50 [2]: 4.2 ± 0.4 µM | IC50 [3]: 106 ± 11.1 µM | IC50 [4]: 16.9 ± 0.1 µM

O=C(OCCc1cc(O)c(O)cc1[N+](=O)[O-])C1CCN(Cc2ccccc2)CC1 [HT2]
mechanism of inhibition on AChE [1]: noncompetitive | IC50 [1]: 3.8 ± 0.3 µM | inhibition type determined for BuChE [2]: mixed | IC50 [2]: 31.8 ± 5.7 µM | IC50 [3]: 418 ± 41.1 µM | IC50 [4]: 128 ± 42 µM

O=C(OCCc1ccc(O)cc1)C1CCN(Cc2ccccc2)CC1 [HT4]
mechanism of inhibition on AChE [1]: uncompetitive | IC50 [1]: 4.9 ± 0.5 µM | inhibition type determined for BuChE [2]: noncompetitive | IC50 [2]: 22.9 ± 7.1 µM | interference with fibril formation [3]: did not interfere with fibril formation | IC50 [4]: 52.2 ± 2.1 µM

COc1cc(CCOC(=O)C2CCN(Cc3ccccc3)CC2)ccc1O [HT3]
mechanism of inhibition on AChE [1]: uncompetitive | IC50 [1]: 4 ± 0.4 µM | inhibition type determined for BuChE [2]: mixed | IC50 [2]: 7.2 ± 0.9 µM | interference with fibril formation [3]: did not interfere with fibril formation | IC50 [4]: 76.8 ± 3 µM

O=C(OCCc1ccc(O)c(O)c1)C1CCN(Cc2ccccc2)CC1 [HT1]
mechanism of inhibition on AChE [1]: uncompetitive | IC50 [1]: 6.5 ± 0.8 µM | inhibition type determined for BuChE [2]: mixed | IC50 [2]: 20.3 ± 2.4 µM | IC50 [3]: 375 ± 143 µM | IC50 [4]: 11.3 ± 1.2 µM

Aβ peptide: Human β-amyloid peptide (1–40, cat. ab120479) from Abcam
malondialdehyde accumulation ([5]; 48 and 72 h): increasing accumulation of malondialdehyde | malondialdehyde accumulation ([5]; after 24 h): absent | ROS in the cells ([6]; after 48 and 72 h): no longer detectable | ROS in the cells ([6]; after 24 h): significant increase in ROS | expression of the cleaved form of caspase 3 [7]: increased expression of caspase 3 | reduction in cell vitality ([8]; 48 and 72 h, at the concentrations considered (0.1–100 μM)): more than 20% | cell viability ([8]; Aβ peptide 0.1 μM): ineffective | cell viability ([8]; Aβ peptide 1, 10 and 100 μM): gradual and increasing reduction in cell viability
